Reference: PubChem BioAssay (NCI)
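1) Cells in 96-well plates. 2) Compound, 48 h, 5 concentrations. 3) Linear interpolation between surrounding doses. 4) Unreached endpoint = highest concentration. TGI: concentration producing complete growth inhibition.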

Tests used:
Experiment in all cases: NCI tumour cell line growth inhibition, 48 h
HCC-2998 colon = test system: HCC-2998 colon
NCI-H226 lung = test system: NCI-H226 lung
SK-MEL-5 melanoma = test system: SK-MEL-5 melanoma
CAKI-1 renal = test system: CAKI-1 renal
OVCAR-8 ovarian = test system: OVCAR-8 ovarian
SF-268 CNS = test system: SF-268 CNS
RXF 393 renal = test system: RXF 393 renal
BT-549 breast = test system: BT-549 breast
SF-539 CNS = test system: SF-539 CNS
A498 renal = test system: A498 renal
RPMI-8226 leukemia = test system: RPMI-8226 leukemia
DU-145 prostate = test system: DU-145 prostate
SNB-19 CNS = test system: SNB-19 CNS
MCF7 breast = test system: MCF7 breast
OVCAR-4 ovarian = test system: OVCAR-4 ovarian
COLO 205 colon = test system: COLO 205 colon
NCI-H23 lung = test system: NCI-H23 lung
HCT-116 colon = test system: HCT-116 colon
SW-620 colon = test system: SW-620 colon
SN12C renal = test system: SN12C renal
UACC-257 melanoma = test system: UACC-257 melanoma
ACHN renal = test system: ACHN renal
K-562 leukemia = test system: K-562 leukemia
SNB-75 CNS = test system: SNB-75 CNS
NCI/ADR-RES ovarian = test system: NCI/ADR-RES ovarian
UO-31 renal = test system: UO-31 renal
MOLT-4 leukemia = test system: MOLT-4 leukemia
NCI-H522 lung = test system: NCI-H522 lung
MDA-MB-435 = test system: MDA-MB-435
HT29 colon = test system: HT29 colon
HCT-15 colon = test system: HCT-15 colon
KM12 colon = test system: KM12 colon
A549 NSCLC = test system: A549 NSCLC
UACC-62 melanoma = test system: UACC-62 melanoma
SR leukemia = test system: SR leukemia
T-47D breast = test system: T-47D breast
OVCAR-3 ovarian = test system: OVCAR-3 ovarian
MALME-3M melanoma = test system: MALME-3M melanoma
SK-OV-3 ovarian = test system: SK-OV-3 ovarian
SK-MEL-28 melanoma = test system: SK-MEL-28 melanoma
HL-60(TB) leukemia = test system: HL-60(TB) leukemia
LOX IMVI melanoma = test system: LOX IMVI melanoma
786-0 renal = test system: 786-0 renal
HS 578T breast = test system: HS 578T breast
M14 melanoma = test system: M14 melanoma
PC-3 prostate = test system: PC-3 prostate
IGROV1 ovarian = test system: IGROV1 ovarian
CCRF-CEM leukemia = test system: CCRF-CEM leukemia
SF-295 CNS = test system: SF-295 CNS
HOP-62 NSCLC = test system: HOP-62 NSCLC
NCI-H460 lung = test system: NCI-H460 lung
OVCAR-5 ovarian = test system: OVCAR-5 ovarian
EKVX NSCLC = test system: EKVX NSCLC
MDA-N = test system: MDA-N
HOP-92 NSCLC = test system: HOP-92 NSCLC
TK-10 renal = test system: TK-10 renal
MDA-MB-231 breast = test system: MDA-MB-231 breast
SK-MEL-2 melanoma = test system: SK-MEL-2 melanoma
U251 CNS = test system: U251 CNS

## COc1ccc(OC)c(NC(=O)c2c(Cl)c(Cl)c(Cl)c(Cl)c2-c2nc3ccccc3[nH]2)c1
HCC-2998 colon
  TGI: > 100 µM
NCI-H226 lung
  TGI: > 100 µM
SK-MEL-5 melanoma
  TGI: > 100 µM
CAKI-1 renal
  TGI: > 100 µM
OVCAR-8 ovarian
  TGI: > 100 µM
SF-268 CNS
  TGI: > 100 µM
RXF 393 renal
  TGI: > 100 µM
BT-549 breast
  TGI: > 100 µM
SF-539 CNS
  TGI: > 100 µM
A498 renal
  TGI: > 100 µM
RPMI-8226 leukemia
  TGI: > 100 µM
DU-145 prostate
  TGI: > 100 µM
SNB-19 CNS
  TGI: > 100 µM
MCF7 breast
  TGI: > 100 µM
OVCAR-4 ovarian
  TGI: > 100 µM
COLO 205 colon
  TGI: > 100 µM
NCI-H23 lung
  TGI: > 100 µM
HCT-116 colon
  TGI: > 100 µM
SW-620 colon
  TGI: > 100 µM
SN12C renal
  TGI: > 100 µM
UACC-257 melanoma
  TGI: > 100 µM
ACHN renal
  TGI: > 100 µM
K-562 leukemia
  TGI: > 100 µM
SNB-75 CNS
  TGI: > 100 µM
NCI/ADR-RES ovarian
  TGI: > 100 µM
UO-31 renal
  TGI: > 100 µM
MOLT-4 leukemia
  TGI: > 100 µM
NCI-H522 lung
  TGI: > 100 µM
MDA-MB-435
  TGI: > 100 µM
HT29 colon
  TGI: > 100 µM
HCT-15 colon
  TGI: > 100 µM
KM12 colon
  TGI: > 100 µM
A549 NSCLC
  TGI: > 100 µM
UACC-62 melanoma
  TGI: > 100 µM
SR leukemia
  TGI: > 100 µM
T-47D breast
  TGI: > 100 µM
OVCAR-3 ovarian
  TGI: > 100 µM
MALME-3M melanoma
  TGI: > 100 µM
SK-OV-3 ovarian
  TGI: > 100 µM
SK-MEL-28 melanoma
  TGI: > 100 µM
HL-60(TB) leukemia
  TGI: > 100 µM
LOX IMVI melanoma
  TGI: > 100 µM
786-0 renal
  TGI: > 100 µM
HS 578T breast
  TGI: > 100 µM
M14 melanoma
  TGI: > 100 µM
PC-3 prostate
  TGI: > 100 µM
IGROV1 ovarian
  TGI: > 100 µM
CCRF-CEM leukemia
  TGI: > 100 µM
SF-295 CNS
  TGI: > 100 µM
HOP-62 NSCLC
  TGI: > 100 µM
NCI-H460 lung
  TGI: > 100 µM
OVCAR-5 ovarian
  TGI: > 100 µM
EKVX NSCLC
  TGI: > 100 µM
MDA-N
  TGI: > 100 µM
HOP-92 NSCLC
  TGI: > 100 µM

## CN(C)CCNC(=O)c1cnn(C)c1[N+](=O)[O-]
HCC-2998 colon
  TGI: > 100 µM
NCI-H226 lung
  TGI: > 100 µM
SK-MEL-5 melanoma
  TGI: > 100 µM
CAKI-1 renal
  TGI: > 100 µM
OVCAR-8 ovarian
  TGI: > 100 µM
SF-268 CNS
  TGI: > 100 µM
RXF 393 renal
  TGI: > 100 µM
TK-10 renal
  TGI: > 100 µM
BT-549 breast
  TGI: > 100 µM
SF-539 CNS
  TGI: > 100 µM
A498 renal
  TGI: > 100 µM
RPMI-8226 leukemia
  TGI: > 100 µM
DU-145 prostate
  TGI: > 100 µM
SNB-19 CNS
  TGI: > 100 µM
MCF7 breast
  TGI: > 100 µM
OVCAR-4 ovarian
  TGI: > 100 µM
COLO 205 colon
  TGI: 47.8 µM
NCI-H23 lung
  TGI: > 100 µM
HCT-116 colon
  TGI: > 100 µM
SW-620 colon
  TGI: > 100 µM
SN12C renal
  TGI: > 100 µM
MDA-MB-231 breast
  TGI: > 100 µM
UACC-257 melanoma
  TGI: > 100 µM
ACHN renal
  TGI: > 100 µM
K-562 leukemia
  TGI: > 100 µM
SNB-75 CNS
  TGI: > 100 µM
UO-31 renal
  TGI: > 100 µM
MOLT-4 leukemia
  TGI: > 100 µM
NCI-H522 lung
  TGI: > 100 µM
MDA-MB-435
  TGI: > 100 µM
HT29 colon
  TGI: > 100 µM
HCT-15 colon
  TGI: > 100 µM
KM12 colon
  TGI: > 100 µM
A549 NSCLC
  TGI: > 100 µM
UACC-62 melanoma
  TGI: > 100 µM
SR leukemia
  TGI: > 100 µM
T-47D breast
  TGI: > 100 µM
OVCAR-3 ovarian
  TGI: 70.6 µM
SK-MEL-2 melanoma
  TGI: > 100 µM
MALME-3M melanoma
  TGI: 36.1 µM
SK-OV-3 ovarian
  TGI: > 100 µM
SK-MEL-28 melanoma
  TGI: > 100 µM
HL-60(TB) leukemia
  TGI: > 100 µM
LOX IMVI melanoma
  TGI: > 100 µM
786-0 renal
  TGI: > 100 µM
HS 578T breast
  TGI: > 100 µM
M14 melanoma
  TGI: > 100 µM
U251 CNS
  TGI: > 100 µM
PC-3 prostate
  TGI: > 100 µM
IGROV1 ovarian
  TGI: > 100 µM
CCRF-CEM leukemia
  TGI: > 100 µM
SF-295 CNS
  TGI: > 100 µM
HOP-62 NSCLC
  TGI: > 100 µM
NCI-H460 lung
  TGI: > 100 µM
OVCAR-5 ovarian
  TGI: > 100 µM
EKVX NSCLC
  TGI: > 100 µM
MDA-N
  TGI: > 100 µM
